Experimental data reported in ChEMBL document CHEMBL1781991, “Heteroalicyclic carboxamidines as inhibitors of inducible nitric oxide synthase; the identification of (2R)-2-pyrrolidinecarboxamidine as a potent and selective haem-co-ordinating inhibitor” (Bioorg Med Chem Lett, 2011).

Experiments:
[1] = molecular target: T1, Nitric oxide synthase, inducible (Homo sapiens, UniProt P35228); assay: Inhibition of human recombinant iNOS by microtiter plate assay
[2] = molecular target: T2, Nitric oxide synthase 3 (Homo sapiens, UniProt P29474); assay: Inhibition of human recombinant eNOS by microtiter plate assay
T2 sequence (P29474 whole entry): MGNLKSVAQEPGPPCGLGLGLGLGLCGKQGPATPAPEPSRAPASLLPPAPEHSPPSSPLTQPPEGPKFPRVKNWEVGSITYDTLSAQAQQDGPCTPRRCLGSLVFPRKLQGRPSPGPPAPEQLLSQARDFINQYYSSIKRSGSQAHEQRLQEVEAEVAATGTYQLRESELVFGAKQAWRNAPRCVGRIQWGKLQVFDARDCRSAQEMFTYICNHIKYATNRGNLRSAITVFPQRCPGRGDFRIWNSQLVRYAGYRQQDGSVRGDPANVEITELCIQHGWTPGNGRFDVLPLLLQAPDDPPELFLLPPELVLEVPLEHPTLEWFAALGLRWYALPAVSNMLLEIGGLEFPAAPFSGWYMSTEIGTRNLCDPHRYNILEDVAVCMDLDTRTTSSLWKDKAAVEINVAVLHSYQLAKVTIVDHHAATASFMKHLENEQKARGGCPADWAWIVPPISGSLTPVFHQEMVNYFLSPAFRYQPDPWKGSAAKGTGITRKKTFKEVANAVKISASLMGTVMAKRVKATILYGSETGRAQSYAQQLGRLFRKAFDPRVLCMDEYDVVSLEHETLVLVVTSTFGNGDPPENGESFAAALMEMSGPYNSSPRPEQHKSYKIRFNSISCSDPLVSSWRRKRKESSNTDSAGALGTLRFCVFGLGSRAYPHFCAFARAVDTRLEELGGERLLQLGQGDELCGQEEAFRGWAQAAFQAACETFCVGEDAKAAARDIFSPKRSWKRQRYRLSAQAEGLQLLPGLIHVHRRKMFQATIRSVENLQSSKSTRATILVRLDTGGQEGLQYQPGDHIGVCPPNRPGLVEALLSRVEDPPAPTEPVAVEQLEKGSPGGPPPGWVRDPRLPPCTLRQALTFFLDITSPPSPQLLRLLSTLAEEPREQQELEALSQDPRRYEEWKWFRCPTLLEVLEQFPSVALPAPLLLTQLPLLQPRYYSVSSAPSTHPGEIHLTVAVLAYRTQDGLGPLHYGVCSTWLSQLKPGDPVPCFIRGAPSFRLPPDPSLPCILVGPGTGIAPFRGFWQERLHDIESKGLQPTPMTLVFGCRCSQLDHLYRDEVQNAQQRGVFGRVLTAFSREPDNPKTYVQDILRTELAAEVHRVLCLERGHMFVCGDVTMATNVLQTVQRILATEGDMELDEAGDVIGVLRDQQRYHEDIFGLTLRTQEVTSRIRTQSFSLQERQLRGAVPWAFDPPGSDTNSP

[3] = molecular target: Nitric oxide synthase 1 (Homo sapiens, UniProt P29475); assay: Inhibition of human recombinant nNOS by microtiter plate assay
Nitric oxide synthase 1, sequence (P29475 whole entry): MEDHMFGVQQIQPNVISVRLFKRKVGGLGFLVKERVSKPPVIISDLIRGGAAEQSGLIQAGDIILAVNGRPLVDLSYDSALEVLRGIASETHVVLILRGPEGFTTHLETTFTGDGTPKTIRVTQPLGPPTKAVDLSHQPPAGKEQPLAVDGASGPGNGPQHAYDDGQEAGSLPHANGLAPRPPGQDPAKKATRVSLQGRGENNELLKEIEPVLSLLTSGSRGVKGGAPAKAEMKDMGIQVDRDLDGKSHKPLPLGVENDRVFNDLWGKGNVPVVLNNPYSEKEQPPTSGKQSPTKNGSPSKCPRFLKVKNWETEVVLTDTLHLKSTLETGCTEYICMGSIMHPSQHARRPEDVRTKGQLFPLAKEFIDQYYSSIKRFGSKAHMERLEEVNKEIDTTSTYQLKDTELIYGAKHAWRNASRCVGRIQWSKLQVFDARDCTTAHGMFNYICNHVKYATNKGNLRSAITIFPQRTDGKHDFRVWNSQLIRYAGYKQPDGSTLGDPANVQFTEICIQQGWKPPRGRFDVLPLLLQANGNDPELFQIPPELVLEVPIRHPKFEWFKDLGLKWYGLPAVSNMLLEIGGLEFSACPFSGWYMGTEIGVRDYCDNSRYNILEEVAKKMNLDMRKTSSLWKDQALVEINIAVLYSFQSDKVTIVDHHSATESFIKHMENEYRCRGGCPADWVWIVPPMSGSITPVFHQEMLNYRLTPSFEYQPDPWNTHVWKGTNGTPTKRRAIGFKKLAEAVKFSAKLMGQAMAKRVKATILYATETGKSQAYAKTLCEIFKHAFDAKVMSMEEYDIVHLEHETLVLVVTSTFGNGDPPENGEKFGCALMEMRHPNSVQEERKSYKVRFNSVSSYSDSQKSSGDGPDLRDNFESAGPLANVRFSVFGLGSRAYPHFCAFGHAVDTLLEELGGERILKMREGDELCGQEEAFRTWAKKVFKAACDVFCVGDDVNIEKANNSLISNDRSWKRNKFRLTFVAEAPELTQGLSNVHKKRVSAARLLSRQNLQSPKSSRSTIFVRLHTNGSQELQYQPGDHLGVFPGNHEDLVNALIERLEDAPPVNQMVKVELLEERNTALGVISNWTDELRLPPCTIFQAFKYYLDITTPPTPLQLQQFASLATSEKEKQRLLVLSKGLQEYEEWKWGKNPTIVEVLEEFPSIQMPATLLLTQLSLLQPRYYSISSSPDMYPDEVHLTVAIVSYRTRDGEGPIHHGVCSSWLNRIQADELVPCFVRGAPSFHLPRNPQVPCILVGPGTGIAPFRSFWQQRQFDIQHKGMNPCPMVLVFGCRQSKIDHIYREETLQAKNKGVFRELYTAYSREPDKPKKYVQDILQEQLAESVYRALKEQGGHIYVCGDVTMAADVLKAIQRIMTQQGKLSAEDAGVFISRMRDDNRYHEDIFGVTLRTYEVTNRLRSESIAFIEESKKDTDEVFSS

[4] = molecular target: T1, Nitric oxide synthase, inducible; assay: Binding affinity to human recombinant iNOS delta 65 residue

T1 sequence (P35228 whole entry): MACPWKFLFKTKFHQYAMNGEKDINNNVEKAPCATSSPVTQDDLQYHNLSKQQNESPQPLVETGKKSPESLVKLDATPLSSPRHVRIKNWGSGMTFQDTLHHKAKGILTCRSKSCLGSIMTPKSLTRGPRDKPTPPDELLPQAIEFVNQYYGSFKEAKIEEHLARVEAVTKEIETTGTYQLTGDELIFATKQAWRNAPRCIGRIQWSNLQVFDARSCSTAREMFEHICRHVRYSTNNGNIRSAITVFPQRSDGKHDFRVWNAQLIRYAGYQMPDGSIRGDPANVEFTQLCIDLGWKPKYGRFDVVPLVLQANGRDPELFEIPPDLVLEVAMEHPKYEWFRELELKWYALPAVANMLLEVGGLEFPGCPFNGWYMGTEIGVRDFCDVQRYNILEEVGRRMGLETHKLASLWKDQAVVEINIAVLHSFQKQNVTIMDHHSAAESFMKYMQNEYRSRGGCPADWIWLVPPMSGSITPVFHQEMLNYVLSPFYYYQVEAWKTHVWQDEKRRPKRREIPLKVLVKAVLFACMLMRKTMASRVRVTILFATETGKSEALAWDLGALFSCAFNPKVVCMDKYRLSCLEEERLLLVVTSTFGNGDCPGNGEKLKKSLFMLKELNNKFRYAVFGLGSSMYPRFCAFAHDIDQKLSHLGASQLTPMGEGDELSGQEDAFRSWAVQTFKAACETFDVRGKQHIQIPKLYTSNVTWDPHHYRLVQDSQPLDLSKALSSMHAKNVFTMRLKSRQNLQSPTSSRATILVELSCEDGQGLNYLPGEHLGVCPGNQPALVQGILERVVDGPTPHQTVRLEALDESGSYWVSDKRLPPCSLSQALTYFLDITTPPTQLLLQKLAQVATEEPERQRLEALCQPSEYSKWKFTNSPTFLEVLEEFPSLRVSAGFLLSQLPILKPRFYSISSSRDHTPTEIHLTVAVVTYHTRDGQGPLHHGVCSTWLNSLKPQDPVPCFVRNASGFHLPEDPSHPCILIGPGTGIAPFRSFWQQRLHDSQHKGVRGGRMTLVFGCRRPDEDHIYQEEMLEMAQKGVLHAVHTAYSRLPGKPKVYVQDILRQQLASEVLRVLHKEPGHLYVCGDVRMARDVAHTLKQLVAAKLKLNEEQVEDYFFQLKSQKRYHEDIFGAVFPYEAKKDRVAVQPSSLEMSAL

Row | Compound | IC50 [1] [µM] | IC50 [2] [µM] | IC50 [3] [µM] | Kd [4] [µM]
1 | N=C(N)C1CCCN1 (stereo not given) | 0.7 |  |  | 
2 | N=C(N)[C@H]1CCN1 | 0.03 | 0.25 | 0.26 | 
3 | N=C(N)C1CCC1 [CYCLOBUTANECARBOXIMIDAMIDE] | 0.38 |  |  | 
4 | N=C(N)C1CC1 [CYCLOPROPANECARBOXIMIDAMIDE] | 0.79 |  |  | 
5 | N=C(N)C1CCCCN1 (stereo not given) | > 100 |  |  | 
6 | N=C(N)C1CCNCC1 | 58 |  |  | 
7 | N=C(N)[C@H]1CCCN1 | 0.12 | 15 | 14 | 0.63
8 | N=C(N)[C@@H]1CCCN1 | 9.4 | > 100 | > 100 | > 40
9 | N=C(N)C1C=CCN1 (stereo not given) | 0.18 |  |  | 
10 | [H]/N=C(/N)C1CCCC1 [CYCLOPENTANECARBOXIMIDAMIDE] | 4.4 |  |  | 
11 | N=C(N)[C@@H]1CCN1 | 0.2 | 2.4 | 1.7 | 
12 | N=C(N)C1CCCO1 (stereo not given) | 8.9 |  |  | 
13 | N=C(N)C1CNC1 | 14 |  |  | 
14 | N=C(N)C1CCCNC1 (stereo not given) | 51 |  |  | 
15 | N=C(N)C1CCCS1 (stereo not given) | 5.3 |  |  | 
